The source of these data is patent publication US5614623A, “Diastereomers of 1-(isopropoxycarbonyloxy)ethyl 3-cephem-4-carboxylate and processes for their preparation” (Hoechst Aktiengesellschaft, priority 1991, dated 1997).

Data set [1] in a line: stability under the conditions of column chromatography. It is filed as physicochemical. The note with it: both diastereomers and the diastereomer mixture.
The conditions of data set [2]: various animal species and man; cited from earlier work.
Data set [3] relates to enzymes endogenous to the body. The note with it: after absorption, by enzymes endogenous to the body; cited from earlier work.
The conditions of data set [4]: diastereomers; T. Nishimura et al., The Journal of Antibiotics 40, 81-90 (1987); cited from earlier work.
A short description of data set [5]: recovery rate of the cephalosporin with free carboxyl group in the urine of dogs after oral administration of the diastereomeric prodrug ester (enteral absorption). The note with it: for bioavailability: comparison between the diastereomers / with the diastereomer mixture of cefpodoxime proxetil. In kind it is in vivo.

Read-outs that look alike come from different tables or passages of the source.

For `COCC1=C(C(=O)OC(C)OC(=O)OC(C)C)N2C(=O)[C@@H](NC(=O)/C(=N\OC)c3csc(N)n3)[C@H]2SC1` (mixture of isomers) [cefpodoxime proxetil, 1-(Isopropoxycarbonyloxy)ethyl (6R, 7R)-7-[2-(2-aminothiazol-4-yl)-2-(Z)-(methoxyimino)acetamido]-3-methoxymethyl-3-cephem-4-carboxylate (diastereomer mixture, Cefpodoxime Proxetil)], the stability entry in data set [1] is recorded as “unstable”. Further, in data set [2], the enteral absorption entry is “readily enterally absorbed”. Further, the “cleavage to the antibiotically active cephalosporin having a free carboxyl group” value in data set [3] was “rapidly and completely cleaved”.

On to `CC(OC(=O)OC1CCCCC1)OC(=O)C1=C(CSc2nnnn2CCN(C)C)CS[C@@H]2[C@H](NC(=O)Cc3csc(N)n3)C(=O)N12` (stereo partly shown) [cefotiam hexetil], for which the “effect of configuration in the 1-position on the level of enteral absorption” value in data set [4] is “no effect on the level of enteral absorption”.

Take `COCC1=C(C(=O)OC(C)OC(=O)OC(C)C)N2C(=O)[C@@H](NC(=O)/C(=N\OC)c3csc(N)n3)[C@H]2SC1` (single isomer, unassigned; diastereomer b) [Example 8]: in data set [5] (as shown in Table 1), the enteral absorption result is listed as “increased enteral absorption”. For the same compound, the bioavailability result in data set [5] (listed as the more absorbable diastereomer) is reported as “higher bioavailability than the diastereomer mixture”; in data set [5] (listed as the more polar of the two diastereomers) it was “higher bioavailability”.
